Laboratory results as given in patent US8765961B2, “Near infrared fluorescent imaging agent” (FUJIFILM Corporation, priority 2009, dated 2014).

Molecular target: T1, albumin (Bos taurus, UniProt P02769)
T1 construct: The test substance was dissolved to 5 μg/mL in calf serum; from tissue; host or cells: calf serum
Experiment: Serum protein binding rate test by ultracentrifugation, albumin fraction
Format: in vitro ADME
Conditions: 5 μg/mL in calf serum, 37° C., density gradient centrifugation, HPLC
Method: The test substance was dissolved to 5 μg/mL in calf serum, vibrated for 20 minutes at 37° C., and subjected to density gradient centrifugation (1,000,000×g, 24 h) using NaBr. Following the centrifugation, the dye concentrations in the albumin fraction, lipoprotein fraction, and the remaining fractions were quantified by HPLC.

T1 sequence (P02769 25-607): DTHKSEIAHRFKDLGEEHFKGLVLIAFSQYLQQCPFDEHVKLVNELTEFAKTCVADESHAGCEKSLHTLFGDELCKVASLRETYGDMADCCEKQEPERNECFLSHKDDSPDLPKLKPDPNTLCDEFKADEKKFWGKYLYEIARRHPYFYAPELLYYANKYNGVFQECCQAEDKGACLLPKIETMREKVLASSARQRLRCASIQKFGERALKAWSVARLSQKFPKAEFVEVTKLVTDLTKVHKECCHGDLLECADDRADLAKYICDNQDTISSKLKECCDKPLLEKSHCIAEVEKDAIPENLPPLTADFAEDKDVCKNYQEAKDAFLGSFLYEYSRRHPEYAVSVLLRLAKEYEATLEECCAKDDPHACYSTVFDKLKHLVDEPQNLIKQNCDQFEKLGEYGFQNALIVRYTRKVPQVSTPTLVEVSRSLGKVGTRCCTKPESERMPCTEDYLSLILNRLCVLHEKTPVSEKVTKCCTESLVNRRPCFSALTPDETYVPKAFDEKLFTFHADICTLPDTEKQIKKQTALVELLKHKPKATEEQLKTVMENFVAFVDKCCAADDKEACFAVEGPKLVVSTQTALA

Protein binding rate (%) Albumin: 18%
Structure (SMILES): CC1(C)C(/C=C/C=C/C=C/C=C2\N(CCCCS(=O)(=O)O)c3ccc4ccccc4c3C2(C)C)=[N+](CCCCS(=O)(=O)[O-])c2ccc3ccccc3c21 [ICG, indocyanine green]
